The values below come from paper PMC8657855 (International Journal of Molecular Sciences, 2021).

The structures appear in SMILES notation. Values after ≈ are worked out from the molar mass of the structure shown.

Assay in all cases: microbe, parasite or virus in culture
For assay [1], the system named is Xanthomonas oryzae pv. oryzicola Xoc. The settings on record: for inhibition at 10 µg/mL: read-out: Inhibition (%) 10 (mg/L); for inhibition at 50 µg/mL: read-out: Inhibition (%) 50 (mg/L).
Assay [2] relates to Xanthomonas oryzae pv. oryzae Xoo. The settings on record: for inhibition at 10 µg/mL: read-out: Inhibition (%) 10 (mg/L); for inhibition at 50 µg/mL: read-out: Inhibition (%) 50 (mg/L).
Assay [3] relates to Xanthomonas oryzae pv. oryzicola Xoc. As to conditions: read-out: EC50 (mg/L) Xoc.
Assay [4] deals with Xanthomonas oryzae pv. oryzae Xoo. The settings on record: read-out: EC50 (mg/L) Xoo.

`CS(=O)(=O)c1nnc(CNC(=O)c2ccc(C(F)(F)F)cc2)o1` [compound 22, N-((5-(methylsulfonyl)-1,3,4-oxadiazol-2-yl)methyl)-4-(trifluoromethyl)benz amide]: the inhibition at 10 µg/mL in assay [1] is 90.3 ± 5.5%; in assay [2] it was 99.7 ± 0.2%. Besides, the inhibition at 50 µg/mL in assay [1] was found to be 99.3 ± 0.3%; in assay [2], 99.9 ± 0.1%. Further, the EC50 in assay [3] came to 1.7 ± 0.09 mg/L (≈ 4.87 µM); in assay [4], 0.72 ± 0.05 mg/L (≈ 2.06 µM).

For `CS(=O)(=O)c1nnc(CNC(=O)c2ccc(F)cc2F)o1` [compound 23, 2,4-difluoro-N-((5-(methylsulfonyl)-1,3,4-oxadiazol-2-yl)methyl)benzamide], the inhibition at 10 µg/mL came to 69.6 ± 1.8% in assay [1] and 95.7 ± 1.9% in assay [2]. Moreover, the values for the inhibition at 50 µg/mL in assay [1] and in assay [2] were 99.5 ± 0.4% and 95.4 ± 0.4%, respectively. In addition, the values for the EC50 in assay [3] and in assay [4] were 7.41 ± 1.3 mg/L (≈ 23.4 µM) and 0.8 ± 0.09 mg/L (≈ 2.52 µM), respectively.

Consider `CS(=O)(=O)c1nnc(CNC(=O)c2ccc(Cl)cc2)o1` [compound 24, 4-chloro-N-((5-(methylsulfonyl)-1,3,4-oxadiazol-2-yl)methyl)benzamide], for which the results for the inhibition at 10 µg/mL in assay [1] and in assay [2] were 96.9 ± 0.4% and 99.9 ± 0.1%, respectively. Besides, the values for the inhibition at 50 µg/mL in assay [1] and in assay [2] were 97.8 ± 2.7% and 99.6 ± 0.2%, respectively. For the same compound, the EC50 in assay [3] was found to be 0.9 ± 0.04 mg/L (≈ 2.85 µM); in assay [4], 0.4 ± 0.03 mg/L (≈ 1.27 µM).

With `CCS(=O)(=O)c1nnc(CNC(=O)c2ccc(Cl)cc2)o1` [compound 25, 4-chloro-N-((5-(ethylsulfonyl)-1,3,4-oxadiazol-2-yl)methyl)benzamide], in assay [1], the inhibition at 10 µg/mL amounted to 99.6 ± 0.3%. The inhibition at 50 µg/mL in assay [1] stood at 98.8 ± 1%; in assay [2] it was 99.2 ± 0.3%. Moreover, the EC50 in assay [3] is 0.94 ± 0.09 mg/L (≈ 2.85 µM); in assay [4], 0.82 ± 0.05 mg/L (≈ 2.49 µM).

For the compound `CS(=O)(=O)c1nnc(CNC(=O)c2ccc(F)cc2)o1` [compound 26, 4-fluoro-N-((5-(methylsulfonyl)-1,3,4-oxadiazol-2-yl)methyl)benzamide], the inhibition at 10 µg/mL in assay [1] is 98.3 ± 1.6%; in assay [2], 99.4 ± 0.2%. In addition, the inhibition at 50 µg/mL was 99 ± 1% in assay [1] and 99.1 ± 0.1% in assay [2]. Also, the figures for the EC50 in assay [3] and in assay [4] were 2.3 ± 0.06 mg/L (≈ 7.69 µM) and 0.61 ± 0.03 mg/L (≈ 2.04 µM), respectively.
